Reference: patent US20130143886A1, “METHODS FOR PRESERVING AND/OR INCREASING RENAL FUNCTION USING XANTHINE OXIDOREDUCTASE INHIBITORS” (priority 2006, published 2013)
Marks after values point to notes of the source that are not given here.

Assays:
[1] = tested on: hyperuricemic gout patients; test: FOCUS long-term open-label study: eGFR, serum creatinine and serum urate; type: in vivo, human; conditions: for GFR (estimated by MDRD, mean) / sCr (mean) / sUA (mean): all subjects
Experimental: The objective of this study was to assess the long-term renal function effects, measured as estimated GFR (eGFR), in a cohort of hyperuricemic gout patients treated febuxostat. Febuxostat was administered at a dosing regimen that chronically maintained a serum urate level (sUA) of <6.0 mg/dL. Of 145 subjects completing a 28-day, double-blind, placebo-controlled trial (See, Becker M A, Schumacher H R, Jr., Wortmann R L, MacDonald P A, Palo […], et al., “Febuxostat, a novel nonpurine selective inhibitor of xanthine oxidase: a twenty-eight-day, multicenter, phase II, randomized, double-blind, placebo-controlled, dose-response clinical trial examining safety and efficacy in patients with gout.” Arthritis and rheumatism, March: 52(3):916-23 (2005)), 116 enrolled in the long-term, 5.5 year Febuxostat Open-label Clinical trial of Urate-lowering efficacy and […] (FOCUS) study. Baseline data were collected upon entry to the initial 28-day trial. Subjects initially received febuxostat 80 mg/day; between weeks 4 to 24 the dose of febuxostat could be titrated to 40 or 120 mg/day to maintain a sUA between <6.0 mg/dL but not lower than 3.0 mg/dL. Age 18 to 85 years with a history or presence of gout as defined by the American College of Rheumatology (Wallace S L, Robinson […], Yu T F, “Preliminary criteria for the classification of the acute arthritis of primary gout.” Arthritis and rheumatism. 1977 April; 20(3):895-900 (1977)). sUA level of ≧8.0 mg/dL at screening for the initial 28-day, double-blind study. […] GFR was estimated (eGFR) using the Modification of Diet in Renal Disease (MDRD) equation shown below: […] otherwise, S=0.742 if subject is female and 1 if male. The predictors, time (year), average sUA on study drug, baseline eGRF, and sUA change from baseline were evaluated for a relationship to eGFR change from baseline using a repeated measures linear model. Backwards selection (p=0.1) was used to reduce the model down to those predictors that best explained the eGRF change from baseline.

[2] = tested on: normal Sprague-Dawley rats; test: Water intake in normal rats (earlier data of the laboratory); type: in vivo; conditions: previous data of this laboratory
remnant kidney (RK) rats = test: Proteinuria in remnant kidney rats; type: in vivo, Male Wistar rats
Experimental: Male Wistar rats (295-340 g) were used to produce rats with remnant kidney (RK) as follows. […] Rats were then assigned to one of four treatment groups: Group 1, RK control rats (n=7); Group 2, RK+febuxostat (Fx) rats (n=8); Group 3, RK+oxonic acid (OA) rats (n=6); and Group 4, RK+OA+Fx (n=10). Oxonic acid (OA) (Sigma-Aldrich, St Louis Mo., USA), administered at 750 mg/kg body weight daily by oral gavage, was given starting the day after the ⅚ nephrectomy. […] Body weight (beginning just before surgery) and food and water intakes were measured daily. Systolic blood pressure, measured in conscious rats by a tail cuff sphygmomanometer, and plasma uric acid (UA) levels were measured at just before surgery (namely, at baseline) and at the end of the four weeks. Proteinuria was measured at baseline and at the end of two and four weeks. […] Food and water intake were determined daily. Systolic blood pressure (SBP) was measured by a tail-cuff sphygmomanometer using an automated system (XBP-100; Kent Scientific Co, Torrington, Conn., USA) in conscious animals. […] Plasma uric acid was quantified using a commercial kit (Diagnostic Chemicals Ltd, Charlottetown, PEI, Canada). […]

[3] = tested on: hyperuricemic gout patients; test: FOCUS long-term open-label study: safety
[4] = adverse events, N = 116, PY = 385.6
[5] = serious adverse events, N = 116, PY = 385.6

Cc1nc(-c2ccc(OCC(C)C)c(C#N)c2)sc1C(=O)O [febuxostat, 2-[3-cyano-4-(2-methylpropoxy)phenyl]-4-methylthiazole-5-carboxylic acid]
Measures of renal function (GFR estimated by MDRD and sCr) (in words) ([1]; 5-year study period): stable over the 5-year study period
Baseline eGFR in a subsequent febuxostat study vs FOCUS baseline (in words) ([1]; 18 subjects who completed FOCUS and enrolled in another febuxostat study): all but 1 of these subjects had a baseline eGRF in the new study that was higher
GFR (estimated by MDRD, mean) ([1]; Year 1 (n = 115)): 65.7 mL/min
sCr (mean) ([1]; Year 1 (n = 115)): 1.2 mg/dL
sUA (mean) ([1]; Year 1 (n = 115), excludes initial 28-day trial): 5.1 mg/dL
GFR (estimated by MDRD, mean) ([1]; Year 2 (n = 84)): 66.0 mL/min
sCr (mean) ([1]; Year 2 (n = 84)): 1.2 mg/dL
sUA (mean) ([1]; Year 2 (n = 84)): 5.1^b mg/dL
GFR (estimated by MDRD, mean) ([1]; Year 3 (n = 71)): 63.2 mL/min
sCr (mean) ([1]; Year 3 (n = 71)): 1.3 mg/dL
sUA (mean) ([1]; Year 3 (n = 71)): 5.0 mg/dL
GFR (estimated by MDRD, mean) ([1]; Year 4 (n = 67)): 64.2 mL/min
sCr (mean) ([1]; Year 4 (n = 67)): 1.3 mg/dL
sUA (mean) ([1]; Year 4 (n = 67)): 4.7^b mg/dL
GFR (estimated by MDRD, mean) ([1]; Year 5 (n = 60)): 65.0 mL/min
sCr (mean) ([1]; Year 5 (n = 60)): 1.3 mg/dL
sUA (mean) ([1]; Year 5 (n = 60)): 4.8 mg/dL
mean serum urate (sUA) ([1]; baseline GFR <60, Year 1): 5.1 mg/dL
mean serum urate (sUA) ([1]; baseline GFR <60, Year 2): 4.8 mg/dL
mean serum urate (sUA) ([1]; baseline GFR <60, Year 3): 4.8 mg/dL
mean serum urate (sUA) ([1]; baseline GFR <60, Year 4): 4.5 mg/dL
mean serum urate (sUA) ([1]; baseline GFR <60, Year 5): 4.6 mg/dL
mean serum urate (sUA) ([1]; baseline GFR ≧60, Year 1): 5.2 mg/dL
mean serum urate (sUA) ([1]; baseline GFR ≧60, Year 2): 5.1 mg/dL
mean serum urate (sUA) ([1]; baseline GFR ≧60, Year 3): 5.1 mg/dL
mean serum urate (sUA) ([1]; baseline GFR ≧60, Year 4): 4.7 mg/dL
mean serum urate (sUA) ([1]; baseline GFR ≧60, Year 5): 4.9 mg/dL
eGFR benefit (in words) ([1]; limited data obtained during Year 6): even greater evidence of eGFR benefit
Predicted eGFR improvement for each 1.0 mg/dL reduction in sUA ([1]; modeling, repeated measures linear model): 1.0 mL/min
Relationship of sUA reduction from baseline to eGFR (in words) ([1]; p=0.02): correlated with greater improvements in eGFR over time
Maintenance of sUA ([1]; throughout the study, regardless of baseline eGFR): < 6.0 mg/dL
Effect on water intake [2]: no effect on water intake
Rise of urinary protein excretion (in words) (remnant kidney (RK) rats; RK rats with and without hyperuricemia): prevented the rise of urinary protein excretion
Urinary protein excretion, lower than the values in the respective control groups (remnant kidney (RK) rats; RK+Fx and RK+OA+Fx rats, end of Week 4): 75-80%
Subjects reporting serious adverse events (SAEs) ([3]; 21/116 subjects): 18%
Athralgia, rate [3, 4]: 13.0 per 100 PY
Diarrhea, rate [3, 4]: 7.8 per 100 PY
Headaches, rate [3, 4]: 20.5 per 100 PY
Influenza viral infections, rate [3, 4]: 7.3 per 100 PY
Limb injuries, rate [3, 4]: 5.4 per 100 PY
Liver function analyses, rate [3, 4]: 6.3 per 100 PY
Lower respiratory tract infections, rate [3, 4]: 8.8 per 100 PY
Musculoskeletal pain, rate [3, 4]: 23.6 per 100 PY
Paresthesias and dysesthesias, rate [3, 4]: 6.2 per 100 PY
Upper respiratory tract infections, rate [3, 4]: 37.8 per 100 PY
Deaths during the study ([3]; in vivo): No subjects died
Cardiac disorders, rate [3, 5]: 1.6 per 100 PY
Gastrointestinal disorders, rate [3, 5]: 0.8 per 100 PY
General disorders and administration site conditions, rate [3, 5]: 0.3 per 100 PY
Hepatobiliary disorders, rate [3, 5]: 0.5 per 100 PY
Infections and infestations, rate [3, 5]: 1.3 per 100 PY
Injury, poisoning and procedural complications, rate [3, 5]: 1.0 per 100 PY
Musculoskeletal and connective tissue disorders, rate [3, 5]: 1.6 per 100 PY
Neoplasms - bening, malignant and unspecified, rate [3, 5]: 1.0 per 100 PY
Nervous system disorders, rate [3, 5]: 0.5 per 100 PY
Psychiatric disorders, rate [3, 5]: 0.3 per 100 PY
Renal and urinary disorders, rate [3, 5]: 0.3 per 100 PY
Subjects reporting at least one AE during the study ([3]; subjects of 116 (Ninety-one percent)): 106/116
Reported rates of adverse events across renal function (in words) ([3]; throughout the range of renal function encountered): no quantitative difference
